Test [1] deals with T1, Human neutrophil elastase (HNE) (Homo sapiens, UniProt P08246).
T1 construct: HNE (EC 3.4.21.37) from human leukocytes was purchased; purchased Innovative Research Company (Novi, Michigan); host or cells: human leukocytes (natural source)
T1 sequence (P08246 30-247 limits assumed): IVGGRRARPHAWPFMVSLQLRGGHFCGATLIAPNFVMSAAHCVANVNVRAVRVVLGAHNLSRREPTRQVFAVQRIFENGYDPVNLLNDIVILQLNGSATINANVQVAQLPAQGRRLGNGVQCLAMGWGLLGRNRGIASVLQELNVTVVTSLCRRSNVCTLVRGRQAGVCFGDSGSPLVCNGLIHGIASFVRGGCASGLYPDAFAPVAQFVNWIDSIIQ
Briefly: HNE activity inhibitory bioassay (MeO-Suc-Ala-Ala-Pro-Val-pNA hydrolysis, absorbance 405 nm). Format: biochemical. Particulars: for IC50: in vitro HNE assay, read-out: IC50, HNE inhibition; for Anti-HNE activity, inhibitory ratio: n = 3; for inhibition at 100 µM: tetracyclic triterpenoids (Table S3).

The target in test [2] is T1, Human neutrophil elastase (HNE). As to the kind of experiment: Enzyme inhibition kinetic analysis of HNE (Michaelis-Menten / Lineweaver-Burk). Format: biochemical.
In a further test the target is T2, HNE (Homo sapiens, UniProt P08246).
T2 construct: HNE (EC 3.4.21.37) from human leukocytes was purchased; purchased Innovative Research Company (Novi, Michigan); host or cells: human leukocytes (natural source)
T2 sequence (P08246 30-247 limits assumed): T1 sequence (P08246 30-247 limits assumed)
As to the kind of experiment: 1H NMR spin-lattice relaxation rates (Rns, Rse) of ligand with and without HNE.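 Also: ligand in d6-DMSO with 50 mM phosphate buffer, selective and nonselective spin-lattice rates from an inversion-recovery pulse sequence, computed by initial-rate approximation.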 Format: binding. As to conditions: pH 7.0, 298 K.

Test [3] concerns acute smoke-induced airway inflammation in mice. As to the kind of experiment: Acute smoke-induced lung (airway) inflammation model in mice, BALF analysis.
[4] abbreviates: smoke exposure, 50 mg/kg intraperitoneal.

Each structure is given as a SMILES string. Where “and” joins values, the source holds several entries; their conditions need not be identical. Identical values can stand only once.

We go through 13 compounds from PMC3869726, “Inhibition of Human Neutrophil Elastase by Pentacyclic Triterpenes” (PLoS ONE, 2013).

For orientation: IC50 means the concentration at which inhibition is half-maximal. Consider `COC(=O)[C@]12CCC(C)(C)C[C@H]1[C@H]1C(=O)C=C3[C@@]4(C)C=C(C#N)C(=O)C(C)(C)[C@@H]4CC[C@@]3(C)[C@]1(C)CC2` [CDDO-Me, C-28 methyl ester of 2-cyano-3,12-dioxoolen-1,9-dien-28-oic acid, reference compound], for which the half-maximal inhibitory concentration (IC50) in test [1] stood at 16.6 µM.

As for `C[C@H]1[C@H](C)CC[C@]2(C(=O)O)CC[C@]3(C)C(=CC[C@@H]4[C@@]5(C)CC[C@H](O)C(C)(C)[C@@H]5CC[C@]43C)[C@H]12` [Compound 1, ursolic acid], the “Anti-HNE activity, inhibitory ratio” value in test [1] (1 µM compound) was 12.22±6.64%; in test [1] (1 µM compound, listed as Ursolic acid (1)) it was 12.2%; in test [1] (3 µM compound), 36.47±5.75 %; in test [1] (10 µM compound), 80.84±3.14 %; in test [1] (30 µM compound), 82.98±5.67 %; in test [1] (30 µM compound, listed as ursolic acid), “more than 80%”. Besides, in test [1] (100 µM compound), the “Anti-HNE activity, inhibitory ratio” value worked out at 88.47±2.96 %. The IC50 in test [1] was 5.51 µM and ~5.51 µM. For the same compound, the “mode of HNE inhibition with respect to substrate” value in test [2] (0, 3, 10 µM ursolic acid, six substrate concentrations 0.2-2 mM, 37°C) was “competitively inhibits HNE”. Moreover, the “apparent maximum velocity Vmax′, trend” value in test [2] (as a function of ursolic acid concentration 0-10 µM, P>0.05) was “invariable”. Further, in test [2] (ursolic acid increasing from 0 µM to 10 µM, P<0.05), the “apparent Michaelis-Menten constant Kapp, trend” value is “increased”. Besides, the “Rns/Rse, proton H3” value on HNE (free ligand 1 mM) worked out at 0.93; on HNE (ligand 1 mM + HNE 5 µM) it was 0.73. The figures for the “Rns/Rse, proton H12” value at HNE (free ligand 1 mM) and on HNE (ligand 1 mM + HNE 5 µM) were 0.88 and 0.62, respectively. Also, the “Rns/Rse, proton H18” value on HNE (free ligand 1 mM) was 0.92; on HNE (ligand 1 mM + HNE 5 µM) it was 0.81. Besides, in test [3] (50 mg/kg intraperitoneal), the “inhibition of the smoke-induced increase in BALF NE” value was 54%. Moreover, the “inhibition of the smoke-induced increase in BALF TNF-α” value in test [3] (50 mg/kg intraperitoneal) was found to be 38%. The “dose with significant inhibition of BALF TNF-α” value in test [3] (doses 10, 30, 100 mg/kg, dose-dependent) is given as no less than 10 mg/kg. In test [3] (doses 10, 30, 100 mg/kg, dose-dependent, P<0.05), the “dose with significant inhibition of BALF NE” value amounted to 30 mg/kg. Moreover, the “levels of BALF NE and TNF-α in vivo” value in test [3] (smoke exposure) was “significantly suppressed”. The “number of neutrophils in BALF” value in test [3] (setting [4]) is recorded as “significantly reduced”. Besides, the “number of total leukocytes in BALF” value in test [3] (setting [4]) is “significantly reduced”.

`CC1(C)[C@@H](O)CC[C@]2(C)[C@H]3C(=O)C=C4[C@@H]5C[C@@](C)(C(=O)O)CC[C@]5(C)CC[C@@]4(C)[C@]3(C)CC[C@@H]12` [Compound 3, glycyrrhetinic acid]: the “Anti-HNE activity, inhibitory ratio” value in test [1] (1 µM compound) turned out to be 0.06±6.40%; in test [1] (3 µM compound) it was 1.05±5.24%; in test [1] (10 µM compound), 21.09±4.96%; in test [1] (30 µM compound), 45.84±0.41 %; in test [1] (100 µM compound), 75.20±2.89 %. In test [1], the 50% inhibitory concentration (IC50) is roughly 36.9 µM. Also, the “Rns/Rse, proton H3” value was found to be 0.96 on HNE (free ligand 1 mM) and 0.74 on HNE (ligand 1 mM + HNE 5 µM). The “Rns/Rse, proton H5” value on HNE (free ligand 1 mM) is 0.92; at HNE (ligand 1 mM + HNE 5 µM), 0.84. Further, the “Rns/Rse, proton H12” value on HNE (free ligand 1 mM) turned out to be 0.94; on HNE (ligand 1 mM + HNE 5 µM), 0.85. Moreover, the figures for the “Rns/Rse, proton H18” value on HNE (free ligand 1 mM) and on HNE (ligand 1 mM + HNE 5 µM) were 2.29 and 0.81, respectively.

Turning to `CC1(C)[C@@H](O[C@H]2O[C@H](C(=O)O)[C@@H](O)[C@H](O)[C@H]2O[C@@H]2O[C@H](C(=O)O)[C@@H](O)[C@H](O)[C@H]2O)CC[C@]2(C)[C@H]3C(=O)C=C4[C@@H]5C[C@@](C)(C(=O)O)CC[C@]5(C)CC[C@@]4(C)[C@]3(C)CC[C@@H]12` [Compound 4, glycyrrhizin], the “Anti-HNE activity, inhibitory ratio” value in test [1] (1 µM compound) is recorded as 10.25±1.73%; in test [1] (3 µM compound), 19.00±6.99 %; in test [1] (10 µM compound) it was 28.21±4.84 %; in test [1] (30 µM compound), 40.89±1.28 %; in test [1] (100 µM compound), 78.66±1.99 %. Also, the IC50 in test [1] is roughly 27.6 µM. The “Rns/Rse, proton H9” value at HNE (free ligand 1 mM) and at HNE (ligand 1 mM + HNE 5 µM) was 0.64 throughout. Moreover, the “Rns/Rse, proton H12” value is reported as 0.87 at HNE (free ligand 1 mM) and 0.74 on HNE (ligand 1 mM + HNE 5 µM). For the same compound, the “Rns/Rse, proton glc-H1’” value turned out to be 0.54 on HNE (free ligand 1 mM) and 0.31 at HNE (ligand 1 mM + HNE 5 µM). In addition, the results for the “Rns/Rse, proton glc-H1”” value on HNE (free ligand 1 mM) and at HNE (ligand 1 mM + HNE 5 µM) were 0.49 and 0.47, respectively.

`C=C(C)[C@@H]1CC[C@]2(C(=O)O)CC[C@]3(C)[C@H](CC[C@@H]4[C@@]5(C)CC[C@H](O)C(C)(C)[C@@H]5CC[C@]43C)[C@@H]12` [Compound 5, betulinic acid]: the “Anti-HNE activity, inhibitory ratio” value is 8.25±1.88% in test [1] (1 µM compound); 46.57±2.47 % in test [1] (3 µM compound); 74.20±2.32 % in test [1] (10 µM compound); 80.58±2.21 % in test [1] (30 µM compound); “more than 80%” in test [1] (30 µM compound, listed as betulinic acid); 82.41±1.37 % in test [1] (100 µM compound). Besides, the concentration for half-maximal inhibition (IC50) in test [1] is roughly 6.83 µM. Moreover, the figures for the “Rns/Rse, proton H13” value at HNE (free ligand 1 mM) and on HNE (ligand 1 mM + HNE 5 µM) were 1.51 and 0.97, respectively. Further, the “Rns/Rse, proton H19” value on HNE (free ligand 1 mM) was found to be 0.82; on HNE (ligand 1 mM + HNE 5 µM) it was 0.79. The “Rns/Rse, proton H24” value turned out to be 1.02 on HNE (free ligand 1 mM) and 0.95 on HNE (ligand 1 mM + HNE 5 µM). For the same compound, the figures for the “Rns/Rse, proton H29a” value at HNE (free ligand 1 mM) and on HNE (ligand 1 mM + HNE 5 µM) were 0.96 and 0.95, respectively. The “Rns/Rse, proton H29b” value at HNE (free ligand 1 mM) turned out to be 0.97; on HNE (ligand 1 mM + HNE 5 µM), 0.96.

`C=C(C)[C@@H]1CC[C@]2(C)CC[C@]3(C)[C@H](CC[C@@H]4[C@@]5(C)CC[C@H](O)C(C)(C)[C@@H]5CC[C@]43C)[C@@H]12` [Compound 6, lupeol]: the “Anti-HNE activity, inhibitory ratio” value in test [1] (1 µM compound) is given as 9.38±6.80%; in test [1] (3 µM compound), 19.01±10.00 %; in test [1] (10 µM compound), 51.92±15.22 %; in test [1] (30 µM compound), 88.00±6.26 %; in test [1] (30 µM compound, listed as lupeol), “more than 80%”; in test [1] (100 µM compound) it was 93.56±1.19 %. Besides, the 50% inhibitory concentration (IC50) in test [1] was roughly 8.2 µM. Besides, the entries for the “Rns/Rse, proton H13” value on HNE (free ligand 1 mM) and on HNE (ligand 1 mM + HNE 5 µM) were 1.67 and 1.27, respectively. Moreover, the “Rns/Rse, proton H19” value was 1.03 on HNE (free ligand 1 mM) and 1.00 on HNE (ligand 1 mM + HNE 5 µM). The “Rns/Rse, proton H24” value on HNE (free ligand 1 mM) and at HNE (ligand 1 mM + HNE 5 µM) was 1.03 throughout. For the same compound, the “Rns/Rse, proton H29a” value on HNE (free ligand 1 mM) and at HNE (ligand 1 mM + HNE 5 µM) was 1.23 each time. Further, the “Rns/Rse, proton H29b” value at HNE (free ligand 1 mM) is on record as 1.24; on HNE (ligand 1 mM + HNE 5 µM) it was 1.22.

Broadly, the inhibition is the drop in the measured response relative to a control, in per cent. A low value points to a weak effect. As to `CC(C)(O)[C@@H]1CC[C@](C)([C@H]2[C@@H](O)C[C@@]3(C)[C@@H]4C[C@H](O[C@@H]5O[C@H](CO)[C@@H](O)[C@H](O)[C@H]5O)[C@H]5C(C)(C)[C@@H](O[C@@H]6OC[C@@H](O)[C@H](O)[C@H]6O)CC[C@@]56C[C@@]46CC[C@]23C)O1` [Compound 7, astragaloside IV], in test [1], the inhibition at 100 µM stood at 3.27%. In test [3] (smoke exposure), the “levels of BALF NE and TNF-α in vivo” value is listed as “did not observe the inhibitory effects”. Besides, the airway inflammation result in test [3] (smoke exposure, intraperitoneal, negative control) is listed as “did not inhibit”.

The compound `CC(C)=CCCC(C)(OC1OC(CO)C(O)C(O)C1O)C1CCC2(C)C1C(O)CC1C3(C)CCC(O)C(C)(C)C3C(OC3OC(CO)C(O)C(O)C3OC3OC(C)C(O)C(O)C3O)CC12C` (stereo not drawn) [Compound 8] registered an inhibition at 100 µM in test [1] of 4.01%.

Turning to `CC(=O)OC(C)(C)/C=C/C(=O)[C@](C)(O)[C@H]1[C@H](O)C[C@@]2(C)[C@@H]3CC=C4[C@@H](C[C@H](O)C(=O)C4(C)C)[C@]3(C)C(=O)C[C@]12C` [Compound 9], the inhibition at 100 µM in test [1] stood at 5.77%.

`CC(C)=CCCC1(C)CCC2(C)C3CCC4(C)C(C)C(=O)CCC4C3(C)CCC2(C)C1` (stereo not drawn) [Compound 10] returned an inhibition at 100 µM in test [1] of 2.33%.

Regarding `CC(=O)OC1CC(O)C23COC(O)C1(C)C2CC(O)C1(C)C3C(=O)C(OC(C)=O)C2(C)C(c3ccoc3)CC3OC321` (stereo not drawn) [Compound 11], testing at 100 µM in test [1] gave an inhibition of 4.28%.

Take `CC(C)C1=CC(=O)C(C)(C2[C@H](O)C[C@@]3(C)[C@@H]4CC=C5[C@@H](CC[C@@H](OC6OCC(O)C(O)C6OC6OC(C)C(O)C(O)C6O)C5(C)C)[C@]4(C)C(=O)C[C@]23C)O1` (stereo partly drawn) [Compound 12]: in test [1], the inhibition at 100 µM was found to be 0.8%.

`CC(C)(C)C(=O)Oc1ccc(S(=O)(=O)Nc2ccccc2C(=O)NCC(=O)O)cc1` [ONO-5046, Sivelestat sodium hydrate, reference compound]: the “smoke-induced increase in BALF inflammatory cells and proinflammatory cytokine levels” value in test [3] (intraperitoneal, positive control) is listed as “prevented”.
